{"source": "patent US9072800B2", "about": "“Hand sanitizer” (TRISTEL PLC, priority 2009, dated 2015)", "test": "Flash point by Tag Closed Cup", "type": "physicochemical", "excerpt": "MMB also has the benefit over ethanol that it is substantially non-flammable. […] MMB is considered to be extremely safe, having no R and S phrases and Occupational Exposure Limit."}
{"smiles": "COC(C)(C)CCO", "note": "[MMB, 3-methoxy-3-methylbutan-1-ol]", "values": [{"measurement": "flash point", "result": 68, "unit": "°C"}]}
